Experimental data as given in publication PMC5218480 (PLoS ONE, 2017).

System: MV-4-11 cells
Experiment: Gene expression microarray analysis (Affymetrix PrimeView) and GSEA
Assay type: cell-based, human
Parameters: RFU PODN (11730768_x_at) / Fold change /veh PODN (11730768_x_at) / RFU LINC00158 (11744669_a_at) / Fold change /veh LINC00158 (11744669_a_at) / RFU DUSP10 (11751237_a_at) / Fold change /veh DUSP10 (11751237_a_at) / RFU ID3 (11757404_x_at) / Fold change /veh ID3 (11757404_x_at) / RFU PLEKHG5 (11737974_s_at) / Fold change /veh PLEKHG5 (11737974_s_at) / RFU LRRC4B (11730491_at) / Fold change /veh LRRC4B (11730491_at) / RFU GIMAP4 (11747438_a_at) / Fold change /veh GIMAP4 (11747438_a_at) / RFU KRT8 (11758183_x_at) / Fold change /veh KRT8 (11758183_x_at) / RFU CNN1 (11734310_a_at) / Fold change /veh CNN1 (11734310_a_at) / RFU VPS37D (11726825_at) / Fold change /veh VPS37D (11726825_at) / RFU C10orf10 (11716522_x_at) / Fold change /veh C10orf10 (11716522_x_at) / RFU KIR2DL2 /// KIR2DL4 /// KIR2DL5A /// KIR2DL5B /// KIR2DS1 /// KIR2DS2 /// KIR2DS3 /// KIR2DS4 /// KIR3DL3 /// KIR3DL3 /// KIR3DS1 (11738374_at) / Fold change /veh KIR2DL2 /// KIR2DL4 /// KIR2DL5A /// KIR2DL5B /// KIR2DS1 /// KIR2DS2 /// KIR2DS3 /// KIR2DS4 /// KIR3DL3 /// KIR3DL3 /// KIR3DS1 (11738374_at) / RFU C1QL1 (11718748_at) / Fold change /veh C1QL1 (11718748_at) / RFU TMPRSS4 (11747572_a_at) / Fold change /veh TMPRSS4 (11747572_a_at) / RFU HAMP (11756126_x_at) / Fold change /veh HAMP (11756126_x_at) / RFU RNFT2 (11725882_a_at) / Fold change /veh RNFT2 (11725882_a_at) / RFU NR4A2 (11747474_a_at) / Fold change /veh NR4A2 (11747474_a_at) / RFU ABCC12 (11746883_a_at) / Fold change /veh ABCC12 (11746883_a_at) / RFU TMEM136 (11760407_x_at) / Fold change /veh TMEM136 (11760407_x_at) / RFU CLDN22 /// WWC2 (11732394_at) / Fold change /veh CLDN22 /// WWC2 (11732394_at) / RFU HLA-DPB1 (11760878_x_at) / Fold change /veh HLA-DPB1 (11760878_x_at) / RFU SPINT1 (11716480_a_at) / Fold change /veh SPINT1 (11716480_a_at) / RFU GAP43 (11754022_s_at) / Fold change /veh GAP43 (11754022_s_at) / RFU A4GNT (11735810_at) / Fold change /veh A4GNT (11735810_at) / RFU PRB3 (11715151_x_at) / Fold change /veh PRB3 (11715151_x_at) / RFU TUBB4B (11761932_at) / Fold change /veh TUBB4B (11761932_at) / RFU CAPN14 (11732068_a_at) / Fold change /veh CAPN14 (11732068_a_at) / RFU TMCC2 (11721928_a_at) / Fold change /veh TMCC2 (11721928_a_at) / RFU IRGQ (11745062_a_at) / Fold change /veh IRGQ (11745062_a_at) / RFU FAM174B (11720279_a_at) / Fold change /veh FAM174B (11720279_a_at) / RFU TMPRSS4 (11748680_a_at) / Fold change /veh TMPRSS4 (11748680_a_at) / RFU FAM212B (11763350_a_at) / Fold change /veh FAM212B (11763350_a_at) / RFU PLEKHG5 (11743358_a_at) / Fold change /veh PLEKHG5 (11743358_a_at) / RFU ZSCAN30 (11745921_a_at) / Fold change /veh ZSCAN30 (11745921_a_at) / RFU CMKLR1 (11741424_a_at) / Fold change /veh CMKLR1 (11741424_a_at) / RFU LOC101060620 /// MAPK8IP1 (11723275_at) / Fold change /veh LOC101060620 /// MAPK8IP1 (11723275_at) / RFU SPTSSB (11747773_x_at) / Fold change /veh SPTSSB (11747773_x_at) / RFU PRSS12 (11739890_at) / Fold change /veh PRSS12 (11739890_at) / RFU BIN1 (11741810_x_at) / Fold change /veh BIN1 (11741810_x_at) / RFU WNT11 (11732464_a_at) / Fold change /veh WNT11 (11732464_a_at) / RFU C10orf10 (11716521_a_at) / Fold change /veh C10orf10 (11716521_a_at) / RFU C5orf56 (11738089_at) / Fold change /veh C5orf56 (11738089_at) / RFU CYB561 (11721691_x_at) / Fold change /veh CYB561 (11721691_x_at) / RFU ANKRD19P (11752326_a_at) / Fold change /veh ANKRD19P (11752326_a_at) / RFU OR2T12 /// OR2T33 /// OR2T8 (11738714_s_at) / Fold change /veh OR2T12 /// OR2T33 /// OR2T8 (11738714_s_at) / RFU VCAN (11748164_a_at) / Fold change /veh VCAN (11748164_a_at) / RFU JSRP1 (11732532_at) / Fold change /veh JSRP1 (11732532_at) / RFU KRTAP10-11 (11738290_x_at) / Fold change /veh KRTAP10-11 (11738290_x_at) / RFU MYO3A (11730013_a_at) / Fold change /veh MYO3A (11730013_a_at) / RFU EBF3 (11725865_a_at) / Fold change /veh EBF3 (11725865_a_at) / RFU CAMK2N1 (11719241_x_at) / Fold change /veh CAMK2N1 (11719241_x_at) / RFU C5orf56 (11738088_a_at) / Fold change /veh C5orf56 (11738088_a_at) / RFU OLFML3 (11715873_a_at) / Fold change /veh OLFML3 (11715873_a_at) / RFU LOC100653217 /// NTM (11731650_a_at) / Fold change /veh LOC100653217 /// NTM (11731650_a_at) / RFU MAPK11 (11762145_a_at) / Fold change /veh MAPK11 (11762145_a_at) / RFU FIZ1 (11724087_x_at) / Fold change /veh FIZ1 (11724087_x_at) / RFU OASL (11726364_x_at) / Fold change /veh OASL (11726364_x_at) / RFU SOX15 (11748057_x_at) / Fold change /veh SOX15 (11748057_x_at) / RFU CD79A (11719716_a_at) / Fold change /veh CD79A (11719716_a_at) / RFU HIST1H1D (11736915_at) / Fold change /veh HIST1H1D (11736915_at) / RFU CASKIN2 (11723855_a_at) / Fold change /veh CASKIN2 (11723855_a_at) / RFU LOC730098 (11760151_x_at) / Fold change /veh LOC730098 (11760151_x_at) / RFU OR4N2 (11742367_at) / Fold change /veh OR4N2 (11742367_at) / RFU PRRT2 (11749266_a_at) / Fold change /veh PRRT2 (11749266_a_at) / RFU SNX32 (11753110_a_at) / Fold change /veh SNX32 (11753110_a_at) / RFU CDHR5 (11726645_a_at) / Fold change /veh CDHR5 (11726645_a_at) / RFU RCAN1 (11760418_a_at) / Fold change /veh RCAN1 (11760418_a_at) / RFU FAM167A (11723789_a_at) / Fold change /veh FAM167A (11723789_a_at) / RFU FAM26E (11764081_at) / Fold change /veh FAM26E (11764081_at) / RFU ISYNA1 (11749810_s_at) / Fold change /veh ISYNA1 (11749810_s_at) / RFU ACY1 (11761880_at) / Fold change /veh ACY1 (11761880_at) / RFU 11764098_at / Fold change /veh 11764098_at / RFU SAMD14 (11745864_x_at) / Fold change /veh SAMD14 (11745864_x_at) / RFU NPB (11741838_a_at) / Fold change /veh NPB (11741838_a_at) / RFU TMPRSS6 (11731388_a_at) / Fold change /veh TMPRSS6 (11731388_a_at) / RFU KRTAP10-2 (11738614_at) / Fold change /veh KRTAP10-2 (11738614_at) / RFU ARHGAP8 /// PRR5-ARHGAP8 (11727945_x_at) / Fold change /veh ARHGAP8 /// PRR5-ARHGAP8 (11727945_x_at) / RFU KRTAP5-7 /// NADSYN1 (11734609_at) / Fold change /veh KRTAP5-7 /// NADSYN1 (11734609_at) / RFU RASL12 (11751679_a_at) / Fold change /veh RASL12 (11751679_a_at) / RFU CDKN2B (11736163_a_at) / Fold change /veh CDKN2B (11736163_a_at) / RFU PRF1 (11729649_at) / Fold change /veh PRF1 (11729649_at) / RFU, ZNF638 /// ZNF638-IT1 / Fold change vs veh, ZNF638 /// ZNF638-IT1 / RFU, PANK3 / Fold change vs veh, PANK3 / RFU, SH3YL1 / Fold change vs veh, SH3YL1 / RFU, ZEB2 / Fold change vs veh, ZEB2 / RFU, NRIP1 / Fold change vs veh, NRIP1 / RFU, PTTG1IP / Fold change vs veh, PTTG1IP / RFU, CAPN2 / Fold change vs veh, CAPN2 / RFU, MED14 / Fold change vs veh, MED14 / RFU, SNORA58 / Fold change vs veh, SNORA58 / RFU, C1orf63 / Fold change vs veh, C1orf63 / RFU, LRRFIP1 / Fold change vs veh, LRRFIP1 / RFU, NDUFAF7 / Fold change vs veh, NDUFAF7 / RFU, SLC12A2 / Fold change vs veh, SLC12A2 / RFU, IBTK / Fold change vs veh, IBTK / RFU, ESF1 / Fold change vs veh, ESF1 / Fold change vs veh, TMEM50B / RFU, TAOK1 / Fold change vs veh, TAOK1 / RFU, ACBD3 / Fold change vs veh, ACBD3 / RFU, TMA16 / Fold change vs veh, TMA16 / RFU, RWDD3 / Fold change vs veh, RWDD3 / RFU, BCAT1 / Fold change vs veh, BCAT1 / RFU, EDEM3 / Fold change vs veh, EDEM3 / RFU, TMEM33 / Fold change vs veh, TMEM33 / RFU, WDR75 / Fold change vs veh, WDR75 / RFU, AHCTF1 / Fold change vs veh, AHCTF1 / RFU, TFRC / Fold change vs veh, TFRC / RFU, ZDHHC17 / Fold change vs veh, ZDHHC17 / RFU, NOM1 / Fold change vs veh, NOM1 / RFU, ARL8B / Fold change vs veh, ARL8B / RFU, ZBTB11 / Fold change vs veh, ZBTB11 / RFU, TAMM41 / Fold change vs veh, TAMM41 / RFU, KIAA1704 /// LOC100996395 / Fold change vs veh, KIAA1704 /// LOC100996395 / RFU, ING1 / Fold change vs veh, ING1 / RFU, TRMT61B / Fold change vs veh, TRMT61B / RFU, FUBP3 / Fold change vs veh, FUBP3 / RFU, TP53 / Fold change vs veh, TP53 / RFU, TNKS2 / Fold change vs veh, TNKS2 / RFU, ZFP14 / Fold change vs veh, ZFP14 / RFU, ACTR2 / Fold change vs veh, ACTR2 / RFU, PPP3R1 / Fold change vs veh, PPP3R1 / RFU, PIK3R1 / Fold change vs veh, PIK3R1 / RFU, HNRNPA1 / Fold change vs veh, HNRNPA1 / RFU, RNF170 / Fold change vs veh, RNF170 / RFU, ZNF28 / Fold change vs veh, ZNF28 / RFU, RNGTT / Fold change vs veh, RNGTT / RFU, OGT / Fold change vs veh, OGT / RFU, BRD1 / Fold change vs veh, BRD1 / RFU, MARS / Fold change vs veh, MARS / RFU, ZNF655 / Fold change vs veh, ZNF655 / RFU, FAHD1 / Fold change vs veh, FAHD1 / RFU, BDP1 / Fold change vs veh, BDP1 / RFU, LRRCC1 / Fold change vs veh, LRRCC1 / RFU, ARID1A / Fold change vs veh, ARID1A / RFU, ZNF146 / Fold change vs veh, ZNF146 / RFU, ZNF330 / Fold change vs veh, ZNF330 / RFU, GPN3 / Fold change vs veh, GPN3 / RFU, C9orf123 / Fold change vs veh, C9orf123 / RFU, N4BP2L2 / Fold change vs veh, N4BP2L2 / RFU, ARFIP1 / Fold change vs veh, ARFIP1 / RFU, FAM179B / Fold change vs veh, FAM179B / RFU, BCL10 / Fold change vs veh, BCL10 / RFU, UHRF1BP1L / Fold change vs veh, UHRF1BP1L / RFU, BET1 / Fold change vs veh, BET1 / RFU, CNOT2 / Fold change vs veh, CNOT2 / RFU, ZNF268 / Fold change vs veh, ZNF268 / Fold change vs veh, ZNF507 / RFU, DGCR2 / Fold change vs veh, DGCR2 / RFU, WDSUB1 / Fold change vs veh, WDSUB1 / Fold change vs veh, HSP90B1 /// MIR3652 / RFU, ADSS / Fold change vs veh, ADSS / RFU, GK / Fold change vs veh, GK / RFU, ZNF148 / Fold change vs veh, ZNF148 / RFU, TAF9 / Fold change vs veh, TAF9 / RFU, SLC1A5 / Fold change vs veh, SLC1A5 / RFU, SLMO2 / Fold change vs veh, SLMO2 / RFU, ABCC4 / Fold change vs veh, ABCC4 / RFU, LOC101060439 /// RAP1B / Fold change vs veh, LOC101060439 /// RAP1B / RFU, RFX7 / Fold change vs veh, RFX7 / RFU, GTPBP10 / Fold change vs veh, GTPBP10 / RFU, CNEP1R1 / Fold change vs veh, CNEP1R1 / RFU, BIVM-ERCC5 /// ERCC5 / Fold change vs veh, BIVM-ERCC5 /// ERCC5 / RFU, ILF3 / Fold change vs veh, ILF3 / RFU 11762660_at / Fold change /veh 11762660_at / RFU VCAN (11757783_s_at) / Fold change /veh VCAN (11757783_s_at) / RFU DDX43 (11728927_at) / Fold change /veh DDX43 (11728927_at) / RFU KRT8 (11758188_x_at) / Fold change /veh KRT8 (11758188_x_at) / RFU NKD1 (11759106_at) / Fold change /veh NKD1 (11759106_at) / RFU SRD5A1 (11742802_a_at) / Fold change /veh SRD5A1 (11742802_a_at) / RFU TPSAB1 /// TPSB2 (11721975_s_at) / Fold change /veh TPSAB1 /// TPSB2 (11721975_s_at) / RFU GSTM3 (11746129_a_at) / Fold change /veh GSTM3 (11746129_a_at) / RFU IL23R (11737362_x_at) / Fold change /veh IL23R (11737362_x_at) / RFU TMEM51 (11727254_a_at) / Fold change /veh TMEM51 (11727254_a_at) / RFU PIWIL2 (11732686_x_at) / Fold change /veh PIWIL2 (11732686_x_at) / RFU ORM1 (11744905_x_at) / Fold change /veh ORM1 (11744905_x_at) / RFU CCDC152 (11743942_at) / Fold change /veh CCDC152 (11743942_at) / RFU ECM1 (11717891_a_at) / Fold change /veh ECM1 (11717891_a_at) / RFU IL23R (11748794_a_at) / Fold change /veh IL23R (11748794_a_at) / RFU TNFAIP8L3 (11732012_x_at) / Fold change /veh TNFAIP8L3 (11732012_x_at) / RFU MBOAT4 (11741988_at) / Fold change /veh MBOAT4 (11741988_at) / RFU 11764193_at / Fold change /veh 11764193_at / RFU TMEM53 (11763286_at) / Fold change /veh TMEM53 (11763286_at) / RFU MAGEB2 (11727129_at) / Fold change /veh MAGEB2 (11727129_at) / RFU TMEM200A (11744735_a_at) / Fold change /veh TMEM200A (11744735_a_at) / RFU CCDC152 (11751479_a_at) / Fold change /veh CCDC152 (11751479_a_at) / RFU FAM211A (11726209_a_at) / Fold change /veh FAM211A (11726209_a_at) / RFU RGS16 (11746705_a_at) / Fold change /veh RGS16 (11746705_a_at) / RFU VCAN (11755009_s_at) / Fold change /veh VCAN (11755009_s_at) / RFU RHOB (11743442_s_at) / Fold change /veh RHOB (11743442_s_at) / RFU RGS16 (11720943_a_at) / Fold change /veh RGS16 (11720943_a_at) / RFU RGS16 (11720944_at) / Fold change /veh RGS16 (11720944_at) / RFU, VPS4B / Fold change vs veh, VPS4B / RFU, CREB1 / Fold change vs veh, CREB1 / RFU, DNAJC13 / Fold change vs veh, DNAJC13 / RFU, GNAQ / Fold change vs veh, GNAQ / RFU, CDK5R1 / Fold change vs veh, CDK5R1 / RFU, ZRANB3 / Fold change vs veh, ZRANB3 / RFU, CUL4A / Fold change vs veh, CUL4A / RFU, CCNY / Fold change vs veh, CCNY / RFU, UFL1 / Fold change vs veh, UFL1 / RFU, COG3 / Fold change vs veh, COG3 / RFU, DIAPH2 / Fold change vs veh, DIAPH2 / RFU, SKA2 / Fold change vs veh, SKA2 / RFU, AFF3 / Fold change vs veh, AFF3 / RFU, LMF1 / Fold change vs veh, LMF1 / RFU, IPO11 / Fold change vs veh, IPO11 / RFU, DFFB / Fold change vs veh, DFFB / RFU, FOXP1 / Fold change vs veh, FOXP1 / RFU, CARD8 / Fold change vs veh, CARD8 / RFU, STRN3 / Fold change vs veh, STRN3 / RFU, ADK / Fold change vs veh, ADK / RFU, RASSF2 / Fold change vs veh, RASSF2 / RFU, WIPF1 / Fold change vs veh, WIPF1 / RFU, LARP1B / Fold change vs veh, LARP1B / RFU, RASA1 / Fold change vs veh, RASA1 / RFU, RB1 / Fold change vs veh, RB1 / RFU, PPFIA1 / Fold change vs veh, PPFIA1 / RFU, MAT2A / Fold change vs veh, MAT2A / RFU, CCT5 / Fold change vs veh, CCT5 / RFU, WDR92 / Fold change vs veh, WDR92 / RFU, CUX1 / Fold change vs veh, CUX1 / RFU, TTC7A / Fold change vs veh, TTC7A / RFU, TMEM135 / Fold change vs veh, TMEM135 / RFU, DEPTOR / Fold change vs veh, DEPTOR / RFU, CPM / Fold change vs veh, CPM / RFU, DNAJB6 / Fold change vs veh, DNAJB6 / RFU, CACNA2D3 / Fold change vs veh, CACNA2D3 / RFU, DTX4 / Fold change vs veh, DTX4 / RFU, TFCP2 / Fold change vs veh, TFCP2 / RFU, GMCL1 /// GMCL1P1 / Fold change vs veh, GMCL1 /// GMCL1P1 / RFU, AEBP2 / Fold change vs veh, AEBP2 / RFU, SNHG1 /// SNORD22 /// SNORD25 /// SNORD26 /// SNORD27 /// SNORD28 /// SNORD29 /// SNORD31 / Fold change vs veh, SNHG1 /// SNORD22 /// SNORD25 /// SNORD26 /// SNORD27 /// SNORD28 /// SNORD29 /// SNORD31 / Fold change (Aza/veh), C12orf56 (ProbeSet 11735607_a_at) / Fold change (ACY-1035/veh), C12orf56 (ProbeSet 11735607_a_at) / Fold change (Aza/veh), FGFR1OP (ProbeSet 11751329_s_at) / Fold change (ACY-1035/veh), FGFR1OP (ProbeSet 11751329_s_at) / Fold change (Aza/veh), VPS36 (ProbeSet 11739960_a_at) / Fold change (ACY-1035/veh), VPS36 (ProbeSet 11739960_a_at) / RFU SYPL1 (11715823_x_at) / Fold change /veh SYPL1 (11715823_x_at) / RFU IGFBP7 (11715501_s_at) / Fold change /veh IGFBP7 (11715501_s_at) / RFU REEP3 (11722064_at) / Fold change /veh REEP3 (11722064_at) / RFU IGLL1 (11728026_x_at) / Fold change /veh IGLL1 (11728026_x_at): dose or concentration left out as unconfirmed
Details: MV-4-11 cells, 48 hours

In the case of `Nc1ncn([C@@H]2O[C@H](CO)[C@@H](O)[C@H]2O)c(=O)n1` [azacitidine], the “Fold change /veh SAMD14 (11745864_x_at)” value is reported as 0.91.
